# Entries after “also recorded” stand apart in the source; their conditions may differ.
# How the values were obtained:
# Type in all cases: physicochemical
# [1] = Time to dissolve in stirred water, estimated by visual inspection; settings: for Time taken to dissolve: 100 mL water, constant stirring
# Description: In order to determine the effect of fine-milling on the dissolution rate, initial testing was performed to examine the rate of dissolution of common supplemental dietary ingredients. For the purposes of this disclosure, the term “regular” as used herein makes reference to non-fine-milled particles. 100 mL of water was placed into a 250 mL beaker and a magnetic stirrer bar was added to the beaker. The beaker was then placed on a magnetic stirrer was set to constant speed. […] The time required to dissolve was estimated by visual inspection. Equal amounts of the fine-milled ingredients were then added to the water and the time required to dissolve was estimated by visual inspection.
# [2] = Solubility test: powder added to stirred water until saturated, gravity filtered, dry residue on filter paper weighed; settings: Whatman 41 filter paper, particle retention 20-25 μm
# Description: In order to test the capacity of fine-milling to improve the rate bioavailability of substances, a simple test was performed. The test was conceived to mimic various elements involved in the processes of oral administration of a nutritional supplement. The key parameters involved were rate of dissolution and solubility, as it is understood that an ingested nutrient must be dissolved or reduced to a bio-transportable size in order to be utilized biochemically by the body.
# The rates of dissolution and solubility of regular common nutritional supplements were compared to fine-milled versions within a fixed time. […] 100 mL of water was added to a 250 mL beaker and a magnetic stirring bar was placed in the beaker. The beaker was placed on a magnetic stirrer and stirred with low speed. 1 g of a given supplemental dietary ingredient powder was added incrementally to the beaker with the stirring speed constant until the solution visually appeared saturated. The solution was filtered by gravity through a pre-weighed filter paper (Whatman 41, particle retention 20-25 μm). […]
# The ‘Fold Change’ represents the change in the amount of substance unable to pass through the filter as calculated by the amount of unfiltered regular substance divided by the amount of unfiltered fine-milled substance and represents the potential theoretical improvement in bioavailability.
# [3] = Kinetic dissolution experiment: 1 g in 50 mL water, filtered at 1 and 5 minutes
# Description: In order to expand on the results of the aforenoted experiments, a kinetic experiment was conducted to examine the change in the dissolution rate over short time periods.
# 1 g of sample was added to 50 mL water in a flask with a magnetic stir bar on a stirrer set at constant speed. Separate samples were filtered at 1 and 5 minutes. The pre-weighed filter papers (Whateman 41, particle retention 20-25 μm) were allowed to dry and the amount of sample remaining on the filter paper was determined.
smiles,measurement,setting,value
CN(CC(=O)O)C(=N)N.O [Creatine Monohydrate],Time taken to dissolve,"[1]; Fine-milled powder, same amount as regular",<5 min
same,"Rate of dissolving, fine-milled compared with regular (in words)",[1]; Monohydrate,appeared to dissolved at the same rate in both the fine-milled and regular formats; also recorded: did not display a difference dependent on particle size
same,Time taken to dissolve,[1]; Regular (non-milled) powder,<5 min
same,Dry Powder On Filter,[2]; Fine-milled powder,0.01 g
same,Dry Powder On Filter,[2]; Regular powder,0.19 g
same,weight of unfiltered sample,"[3]; Fine-milled, 1-minute interval, Monohydrate",0.33 g
same,weight of unfiltered sample,"[3]; Fine-milled, 1-minute interval, listed as creatine, Monohydrate",0.32 g
same,weight of unfiltered sample,"[3]; Fine-milled, 5-minute interval",0.27 g
same,weight of unfiltered sample,"[3]; Regular, 1-minute interval, listed as Creatine monohydrate, Monohydrate",0.32 g
same,weight of unfiltered sample,"[3]; Regular, 1-minute interval, listed as creatine, Monohydrate",0.33 g
same,weight of unfiltered sample,"[3]; Regular, 5-minute interval",0.40 g
